These results are taken from ChEMBL document CHEMBL5257160, “Siderophore conjugates to combat antibiotic-resistant bacteria” (2023).

Values after ≈ are worked out from the molar mass of the structure shown. Numbered stars: 1 amine (or outer) side, 2 acyl side, 3 side chain; on linkers, the order of the positions; unused ones are H or OH. Square brackets hold non-standard residues; d marks the D form. Peptide text beside a SMILES is read from it. X1 = Cn1c(=O)n([C@@H]2S[C@H]([C@H](O)[C@@H](N[*:1])C(=O)[*:2])[C@@H](O)[C@H]2O)cc/c1=N\C(N)=O; Orn(N5-OH,N5-Ac) = CC(=O)N(O)CCC[C@H](N)C(=O)O

Common to all, as to assay type: functional
One assay deals with Acinetobacter baumannii. The assay is described as follows: Antibacterial activity against carbapenem - resistant Acinetobacter baumannii.
The subject of the next assay is Streptococcus pneumoniae. The assay is described as follows: Antibacterial activity against Streptococcus pneumoniae assessed as inhibition of bacterial growth.
The next assay has as its system Yersinia enterocolitica. As to the kind of experiment: Antibacterial activity against Yersinia enterocolitica assessed as inhibition of bacterial growth in iron depleting media incubated for 20 hrs by CLSI protocol based assay.
In the next assay the test system is Escherichia coli. As to the kind of experiment: Antibacterial activity against Escherichia coli assessed as inhibition of bacterial growth.
The subject of another assay is Enterobacter sp. The assay is described as follows: Antibacterial activity against Enterobacter sp. assessed as inhibition of bacterial growth.
Another assay concerns Proteus sp. As to the kind of experiment: Antibacterial activity against Proteus sp. assessed as inhibition of bacterial growth. Conditions: Proteus sp. (in: enterobacteria).
Assay [1] concerns Stenotrophomonas maltophilia. As to the kind of experiment: Antibacterial activity against Stenotrophomonas maltophilia assessed as inhibition of bacterial growth.
The next assay relates to Pseudomonas aeruginosa. As to the kind of experiment: Antibacterial activity against Pseudomonas aeruginosa assessed as inhibition of bacterial growth.
A further assay relates to Enterobacteriaceae. As to the kind of experiment: Antibacterial activity against Enterobacteriaceae assessed as inhibition of bacterial growth.
For the next assay, the system named is Klebsiella sp. As to the kind of experiment: Antibacterial activity against Klebsiella sp. assessed as inhibition of bacterial growth.
Another assay concerns Serratia sp. The assay is described as follows: Antibacterial activity against Serratia sp. assessed as inhibition of bacterial growth. Conditions: Serratia sp. (in: enterobacteria).

Regarding `C[C@@H]1S[C@@H]2[C@H](NC(=O)/C(=N/OC(C)(C)C(=O)O)c3csc(N)n3)C(=O)N2C(C(=O)[O-])=C1C[N+]12CCC(CNC(=O)c3ccc(O)c(O)c3Cl)(CC1)C2`, the MIC (usually the smallest concentration in the dilution series that meets the test's criterion for growth inhibition) against Acinetobacter baumannii was ≤ 0.03 µg/mL.

For `CC(=O)N(O)CCC[C@H](NC(=O)[C@H](CCCN(O)C(C)=O)NC(=O)[C@@H](N)CCCN(O)C(C)=O)C(=O)N[C@@H](CCC(=O)NCCNC(=O)CC[C@@H](NC(=O)c1ccc(N(C)Cc2cnc3nc(N)nc(N)c3n2)cc1)C(=O)O)C(=O)O`, the MIC in the assay on Streptococcus pneumoniae is 1.96 ng/mL (≈ 0.00172 µM); in the assay on Yersinia enterocolitica it was 7.8 ng/mL (≈ 0.00683 µM).

`CC(=O)N(O)CCC[C@H](NC(=O)[C@H](CCCN(O)C(C)=O)NC(=O)[C@@H](N)CCCN(O)C(C)=O)C(=O)N[C@@H](CO)C(=O)N[C@@H](C(=O)O)[C@@H](O)[C@H]1S[C@@H](n2cc/c(=N\C(N)=O)n(C)c2=O)[C@H](O)[C@@H]1O` (H-[Orn(N5-OH,N5-Ac)][Orn(N5-OH,N5-Ac)][Orn(N5-OH,N5-Ac)]S[X1]-OH): the MIC was determined as 5 ng/mL (≈ 0.00504 µM) in the assay on Escherichia coli and 10 ng/mL (≈ 0.0101 µM) with Streptococcus pneumoniae.

As for `CC(C)(O/N=C(\C(=O)N[C@@H]1C(=O)N(S(=O)(=O)O)C1CNC(=O)NCc1cc(=O)c(O)cn1O)c1csc(N)n1)C(=O)O` (some centres undefined), the MIC90 (commonly the lowest concentration that inhibits either 90% of growth or 90% of the strains tested, depending on the study) is 8 µg/mL (≈ 12.6 µM) in the assay with Enterobacter sp., 0.12 µg/mL (≈ 0.19 µM) with Proteus sp. and 0.25 µg/mL (≈ 0.395 µM) in [1].

On to `C[C@H]1[C@H](NC(=O)/C(=N\OCc2cc(=O)c(O)cn2O)c2csc(N)n2)C(=O)N1OS(=O)(=O)O`, for which the figures for the MIC in the assay with Pseudomonas aeruginosa and in the assay with Enterobacteriaceae were 2 µg/mL (≈ 3.96 µM) and ≤ 1 µg/mL, respectively.

In the case of `CC(C)(O/N=C(\C(=O)N[C@@H]1C(=O)N2C(C(=O)[O-])=C(C[N+]3(CCNC(=O)c4ccc(O)c(O)c4Cl)CCCC3)CS[C@H]12)c1csc(N)n1)C(=O)O` [CEFIDEROCOL], the MIC90 with Escherichia coli, with Klebsiella sp., in the assay on Enterobacter sp. and with Serratia sp. was 0.25 µg/mL (≈ 0.332 µM) in each case.
